From article PMC7996082, “The translocator protein ligands as mitochondrial functional modulators for the potential anti-Alzheimer agents” (Journal of Enzyme Inhibition and Medicinal Chemistry, 2021)
Like-named read-outs stand apart in the source and are kept apart here.

What was measured:
[1] = tested on: HT22 cells treated with Aβ; test: Cellular ROS assay (DCFDA): inhibition of Aβ-induced ROS generation; assay type: cell-based, mouse; details: Mus musculus, HT-22, 5 μM compound
Protocol: Among 56 compounds, 23 compounds were selected and further tested for the luciferase-based ATP assay. […] Thus, we chose these two compounds and further evaluated their biological activity by measuring cell viability and reactive oxygen species (ROS) production. The effects on cell viability of each compound under Aβ-induced cytotoxicity were determined by measuring the metabolic activity of NAD(P)H-dependent cellular oxidoreductases using the 3–(4,5-dimethylthiazol-2-yl)-2,5-diphenyl-tetrazolium bromide (MTT) dye. To measure cellular ROS levels, we used a fluorescence indicator, 2′,7′-dichlorofluorescein diacetate (DCFDA), and calculated the percent inhibition of ROS generation by applying the same method used for MTT assays. Compound 7 inhibited Aβ-induced ROS generation (97% at 5 µM) almost to the level of the untreated control (Table 1). […] On the basis of the in vitro activity, we selected compound 7 as the best hit from the initial screening library.

[2] = tested on: transgenic AD model mice (APPswe/PSEN1dE9); test: Contextual fear conditioning test in transgenic AD model mice; assay type: in vivo, mouse; details: Tg AD model mice, 30 mg/kg daily, 1 month, PO
Protocol: The acute AD mice model was prepared by administration of Aβ1-42 solution (10% DMSO/90% PBS) to male ICR mice (6 weeks old, 30 − 33 g) via intracerebroventricular (ICV) injection (Aβ1-42 dose: 500 pmol/mouse) as described previously. The wild type mice (B6C3F1) and double APP/PS1 transgenic mice (Tg AD mice model; APPswe/PSEN1dE9) were purchased from Jackson Laboratory (Bar Harbour, ME, USA). The Tg AD model mice were 11 months old at the beginning of the behaviour test, and were housed for 1 month in a room under controlled temperature and fed ad libitum. The behaviour tests were conducted during daytime in air-controlled and soundproof experiment room. The animal experiments were abided by the guidelines of the Institutional Animal Care and Use Committee of Korea Institute of Science and Technology.
To the Tg mice of the AD model (n = 7 per group), each test compound (30 mg/kg) was orally administrated daily for 1 month. […] Freezing response was measured by the fear conditioning system without application of CS or US.
In addition, we assessed recovery effects of compound 7 by performing contextual fear conditioning tests.[40] Healthy mice show higher number of total freezing, which is an index of fear learning and memory of rodents; therefore, the number of total freezing responses under fear-relevant stimuli was measured with the compound-treated Tg AD model mice. […]

[3] = Pharmacokinetic study in SD male rats; assay type: in vivo, rat; details: 10 mg/kg; for AUC(0-inf) / AUC(0-t) / clearance / Vd / bioavailability / Tmax / half-life / Cmax: Sprague-Dawley, rat, plasma; for bioavailability: oral vs intravenous; for half-life: male
Protocol: Each test compound at a dose of 10 mg/kg was administered intravenously or orally to male Sprague-Dawley (SD) rats. Blood samples collected via carotid artery at several time points after administration of each compound were stored at −70 °C until LC-MS/MS analysis. To determine the plasma concentration of each compound, a 0.1 µg/mL of internal standard in 100 µL of MeCN was added to 50 µL of plasma samples. After vortex-shaking and centrifugation at 10,000 rpm for 10 min, 5 µL of the supernatant was analysed by LC-MS/MS [HP1100® HPLC system (Agilent, Santa Clara, CA) combined with API3200® triple-quadrupole mass spectrometer (Applied Biosystems-SCIEX, Concord, Canada)]. The HPLC chromatographic separation was performed on a reversed-phase Xterra® C18 column (Waters Corporation, Milford, MA) using gradient elution consisted of 0.1% formic acid and 0.1% formic acid in 90% MeCN at a flow rate of 0.3 ml/min.

[4] = tested on: transgenic AD model mice (APPswe/PSEN1dE9); test: Y-maze spontaneous alternation test in transgenic AD model mice; assay type: in vivo, mouse; details: Tg APPswe/PSEN1dE9 mice, 30 mg/kg daily, 1 month, PO
[5] = intravenous, n = 3, read-out: Vss
[6] = n = 3, read-out: F (bioavailability)
[7] = iv, intravenous, n = 3, read-out: Terminal half-life
[8] = po, oral, n = 3, read-out: Terminal half-life

AUC(0-t) ([3]; intravenous, n = 3) [ng·h/mL]	clearance ([3]; intravenous, n = 3) [mL/min/kg]	AUC(0-inf) ([3]; intravenous, n = 3, mean ± SD) [ng·h/mL]	Vd [3, 5] [L/kg]	bioavailability [3, 6] [%]	AUC(0-t) ([3]; oral, n = 3) [ng·h/mL]	Cmax ([3]; oral, n = 3) [ng/mL]	AUC(0-inf) ([3]; oral, n = 3, mean ± SD) [ng·h/mL]	Tmax ([3]; oral, n = 3, range in brackets) [h]	half-life [3, 7] [h]	half-life [3, 8] [h]	Compound	further results
											CCOc1ccc(-n2c(SCC(=O)Nc3ccc(OC)c(OC)c3)nc3sc4c(c3c2=O)CCN(C(C)=O)C4)cc1 [Compound 7]	inhibition at 5 µM [1]: 97%; Contextual fear conditioning: percent recovery of freezing [2]: 62%; AUC(0-inf) ([3]; intravenous, n = 5, Table S3): 6030 ng·h/mL; AUC(0-t) ([3]; intravenous, n = 5, Table S3): 6000 ng·h/mL; clearance ([3]; intravenous, n = 5, Table S3): 28.9 ± 7.09 mL/min/kg; Vd ([3]; intravenous, n = 5, Table S3, read-out: Vss): 1.74 L/kg; bioavailability ([3]; n = 5, Table S3, read-out: F (bioavailability)): 37.3%; AUC(0-inf) ([3]; oral, n = 5, Table S3): 2250 ng·h/mL; AUC(0-t) ([3]; oral, n = 5, Table S3): 1930 ng·h/mL; Tmax ([3]; oral, n = 5, Table S3): 2.2 h; half-life ([3]; iv, intravenous, n = 5, Table S3, read-out: Terminal half-life): 1.04 ± 0.0785 h; half-life ([3]; po, oral, n = 5, Table S3, read-out: Terminal half-life): 2.35 ± 1.04 h; Recovery of Y-maze spontaneous alternations [4]: 50%
4560	32.5 ± 10.1	5510	7.74 ± 1.11	8	194	40 ± 20	443	0.8	2.9 ± 0.54	7.47 ± 0.46	CCOc1ccc(-n2c(SCC(=O)NCc3ccccc3)nc3sc4c(c3c2=O)CCN(C(C)=O)C4)cc1 [Compound 31]	
17600	9.43 ± 1.05	17800	0.785 ± 0.0396	78.4	8120	2110 ± 910	10200	1.2	1.33	3.32 ± 2.24	CCOc1ccc(-n2c(SCC(=O)N3CCN(c4ccccc4)CC3)nc3sc4c(c3c2=O)CCN(C(C)=O)C4)cc1 [Compound 44]	Terminal half-life ([3]; intravenous, n = 3): 1.336 ± 0.156 h
